Data: ChEMBL document CHEMBL1201862, “PubChem BioAssay data set” (2004)
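Five concentrations, 48 hours, 96-well plates. Abbreviation: GI50, concentration required for 50% inhibition of growth.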 Active and inactive are the calls of the source. No stated cut-off is given here; in the data, active = GI50 up to about 1.1 µM and inactive = higher.

Columns and labels:
Assay in all cases: NCI anticancer screen, dose series, 48 h
[1] = system: A498
[2] = system: CAKI-1
[3] = system: COLO 205
[4] = system: DU-145
[5] = system: HCT-116
[6] = system: IGROV-1
[7] = system: K562
[8] = system: KM12
[9] = system: LOX IMVI
[10] = system: MDA-MB-435
[11] = system: MDA-N
[12] = system: NCI-H23
[13] = system: NCI-H522
[14] = system: SF-268
[15] = system: SF-295
[16] = system: SK-MEL-28
[17] = system: SK-OV-3
[18] = system: SN12C
[19] = system: SR
[20] = system: T47D

Measured: GI50

O=C(O)c1ccccc1NCn1c(=S)sc2ccccc21
inactive: [1] > 100 µM | [2] > 100 µM | [3] 25.7 µM | [4] 37.2 µM | [5] 40.7 µM | [6] 57.4 µM | [7] > 100 µM | [8] 63 µM | [9] 20 µM | [10] 83 µM | [11] > 100 µM | [12] 28.2 µM | [13] 27 µM | [14] 45.5 µM | [15] 45.6 µM | [16] > 100 µM | [17] > 100 µM | [18] 35.1 µM | [19] 29.6 µM | [20] 37.1 µM
